Target: interaction between p53 and MDM2 proteins (Homo sapiens, UniProt Q00987)
Experiment: HTRF assay of inhibition of the p53-MDM2 interaction (GST-MDM2 / biotinylated p53 peptide)
Format: binding
Details: 0.02% BSA
Procedure: The ability of the compounds to inhibit the interaction between p53 and MDM2 proteins was measured by an HTRF (homogeneous time-resolved fluorescence) assay in which recombinant GST-tagged MDM2 binds to a peptide that resembles the MDM2-interacting region of p53 (Lane et al.). Binding of GST-MDM2 protein and p53-peptide (biotinylated on its N-terminal end) is registered by the FRET (fluorescence resonance energy transfer) between Europium (Eu)-labeled anti-GST antibody and streptavidin-conjugated Allophycocyanin (APC).
Test is performed in black flat-bottom 384-well plates (Costar) in a total volume of 40 uL containing: 90 nM biotinylate peptide, 160 ng/ml GST-MDM2, 20 nM streptavidin-APC (PerkinElmerWallac), 2 nM Eu-labeled anti-GST-antibody (PerkinElmerWallac), 0.2% bovine serum albumin (BSA), 1 mM dithiothreitol (DTT) and 20 mM […] (TBS) buffer as follows: Add 10 uL of GST-MDM2 (640 ng/ml working solution) in reaction buffer to each well. Add 10 uL diluted compounds (1:5 dilution in reaction buffer) to each well, mix by shaking. Add 20 uL biotinylated p53 peptide (180 nM working solution) in reaction buffer to each well and mix on shaker. Incubate at 37° C. for 1 h. Add 20 uL streptavidin-APC and Eu-anti-GST antibody mixture (6 nM Eu-anti-GST and 60 nM streptavidin-APC working solution) in TBS buffer with 0.2% BSA, shake at room temperature for 30 minutes and read using a TRF-capable plate reader at 665 and 615 nm (Victor 5, Perkin ElmerWallac).

Sequence of interaction between p53 and MDM2 proteins (Q00987 whole entry): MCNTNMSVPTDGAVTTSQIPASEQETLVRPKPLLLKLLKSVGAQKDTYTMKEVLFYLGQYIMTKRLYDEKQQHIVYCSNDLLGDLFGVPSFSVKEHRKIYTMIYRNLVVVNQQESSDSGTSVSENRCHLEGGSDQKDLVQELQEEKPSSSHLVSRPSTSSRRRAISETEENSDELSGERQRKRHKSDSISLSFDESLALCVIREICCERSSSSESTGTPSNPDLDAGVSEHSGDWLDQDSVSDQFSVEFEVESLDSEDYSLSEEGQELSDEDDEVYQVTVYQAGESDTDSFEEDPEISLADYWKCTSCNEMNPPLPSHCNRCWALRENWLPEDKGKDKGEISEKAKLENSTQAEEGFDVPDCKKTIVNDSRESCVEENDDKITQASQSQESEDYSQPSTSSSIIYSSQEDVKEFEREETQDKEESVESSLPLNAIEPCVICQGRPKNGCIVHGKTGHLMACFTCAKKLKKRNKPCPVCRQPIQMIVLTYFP

| Compound | IC50 |
| --- | --- |
| COC(=O)C1(Oc2ccc(Cl)cc2[C@H]2CC(=S)N[C@@H](c3cc(F)ccc3C)[C@]23C(=O)Nc2cc(Cl)ccc23)CCC1 (racemic) [Example 50, racemic (2′S, 3S, 4′R)-6-chloro-4′-[5-chloro-2-(1-methoxycarbonyl-cyclobutoxy)-phenyl]-2′-(5-fluoro-2-methyl-phenyl)-6′-thioxo spiro[3H-indole-3,3′-piperidine]-2(1H)-one] | 4330 nM |
| CONC(=O)C(C)(C)Oc1ccc(Cl)cc1[C@H]1CC(=S)N[C@@H](c2cc(F)ccc2C)[C@]12C(=O)Nc1cc(Cl)ccc12 (racemic) [Example 73, racemic (2′S, 3S, 4′R)-6-chloro-4′-[5-chloro-2-(1-methoxycarbamoyl-1-methyl-ethoxy)-phenyl]-2′-(5-fluoro-2-methyl-phenyl)-6′-thioxo spiro[3H-indole-3,3′-piperidine]-2(1H)-one] | 607 nM |
| COc1cc(F)c(Cl)cc1[C@@H]1CC(=S)N[C@H](c2cc(F)ccc2C)[C@@]12C(=O)Nc1cc(Cl)ccc12 (racemic) [Example 62] | 1090 nM |
| Cc1ccc(F)cc1[C@@H]1NC(=S)C[C@H](c2cc(Cl)ccc2OC(C)(C)C(=O)O)[C@@]12C(=O)Nc1cc(Cl)ccc12 [Example 8, chiral (2′S, 3S, 4′R)-6-chloro-4′-[5-chloro-2-(1-hydroxycarbonyl-1-methyl-ethoxy)-phenyl]-2′-(5-fluoro-2-methyl-phenyl)-6′-thioxo spiro[3H-indole-3,3′-piperidine]-2(1H)-one] | 50 nM |
| CCC(CC)(Oc1ccc(Cl)cc1[C@H]1CC(=S)N[C@@H](c2cc(F)ccc2C)[C@]12C(=O)Nc1cc(Cl)ccc12)C(=O)NS(C)(=O)=O [Example 24, chiral (2′S, 3S, 4′R)-6-chloro-4′-[5-chloro-2-(2-methanesulfonylamino-1,1-diethyl-2-oxo-ethoxy)-phenyl]-2′-(5-fluoro-2-methyl-phenyl)-6′-thioxo spiro[3H-indole-3,3′-piperidine]-2(1H)-one] | 22 nM |

Reference: patent US8076482B2, “3,3′-spiroindolinone derivatives” (Hoffmann-La Roche Inc., priority 2009, dated 2011)
